Assay results reported in patent US7943550B2, “4-(3-Aminobenzoyl)-1 methylpyrazoles and their use as herbicides” (Bayer Cropscience AG, priority 2007, dated 2011).
Like-named read-outs stand apart in the source and are kept apart here.

Tests used:
Type in all cases: in vivo
[1] = system: Viola tricolor; assay: Post-emergence herbicidal action against harmful plants; conditions: scored after 3 to 4 weeks
Method: (§1) 2. Post-Emergence Herbicidal Action Against Harmful Plants
(§2) Seeds of mono- and dicotyledonous harmful plants are placed in sandy loam in cardboard pots, covered with soil and grown in the greenhouse under good growth conditions. Two to three weeks after sowing, the test plants are treated at the three-leaf stage. The compounds according to the invention, which are formulated as wettable powders or as emulsion concentrates, are sprayed at an application rate of 600 to 800 l of water/ha (converted) in a dosage stated in tables 1 to 5 onto the surface of the green plant parts. After the test plants have been left to stand in the greenhouse for 3 to 4 weeks under optimum growth conditions, the action of the compounds according to the invention is scored in comparison to compounds disclosed in the prior art. As shown by the results of these comparison tables, the selected compounds according to the invention have better herbicidal activity against a broad spectrum of economically important mono- and dicotyledonous harmful plants than the compounds disclosed in the prior art.

[2] = system: Polygonum convolvulus; assay: as above; conditions: Comparative Table 1, 20 g a.i./ha, scored after 3 to 4 weeks
Method: as §1, §2

[3] = system: Xanthium strumarium; assay: as above; conditions: Comparative Table 1, 20 g a.i./ha, scored after 3 to 4 weeks
Method: as §1, §2

[4] = system: Amaranthus retroflexus; assay: as above; conditions: scored after 3 to 4 weeks
Method: as §1, §2

[5] = system: Setaria viridis; assay: as above; conditions: scored after 3 to 4 weeks, read-out: Activity against harmful plants SETVI; for pest or weed control at 80 g/ha: Comparative Table 2, 80 g a.i./ha
Method: as §1, §2

[6] = system: Pharbitis purpureum; assay: as above; conditions: scored after 3 to 4 weeks
Method: as §1, §2

[7] = system: Veronica persica; assay: as above; conditions: scored after 3 to 4 weeks
Method: as §1, §2

[8] = system: Digitaria sanguinalis; assay: as above; conditions: Comparative Table 4, 20 g a.i./ha, scored after 3 to 4 weeks
Method: as §1, §2

[9] = system: Galium aparine; assay: as above; conditions: Comparative Table 4, 20 g a.i./ha, scored after 3 to 4 weeks
Method: as §1, §2

[10] = system: Setaria viridis; assay: Pre-emergence herbicidal action against harmful plants; conditions: visual scoring 3-4 weeks after treatment
Excerpt: (§3) 1. Pre-Emergence Herbicidal Action Against Harmful Plants Seeds or rhizome pieces of mono- and dicotyledonous harmful plants are placed in sandy loam in pots of a diameter of 9 to 13 cm and covered with soil. The herbicides, formulated as emulsifiable concentrates or dusts, are applied to the surface of the covering soil in the form of aqueous dispersions or suspensions or emulsions at an application rate of 300 to 800 l of water/ha (converted), at various dosages. For further cultivation of the plants, the pots are then kept in a greenhouse under optimum conditions. The visual scoring of the damage to the harmful plants is carried out 3-4 weeks after the treatment. As shown by the results of these comparative tables, the selected compounds according to the invention have better herbicidal activity against a broad spectrum of economically important mono- and dicotyledonous harmful plants than the compounds disclosed in the prior art.

[11] = system: Avena fatua; assay: as above; conditions: Comparative Table 5, 80 g a.i./ha, visual scoring 3-4 weeks after treatment
Excerpt: as §3

[12] = system: Echinochloa crus galli; assay: as above; conditions: visual scoring 3-4 weeks after treatment
Excerpt: as §3

[13] = system: Amaranthus retroflexus; assay: as above; conditions: Comparative Table 5, 80 g a.i./ha, visual scoring 3-4 weeks after treatment
Excerpt: as §3

[14] = system: Cyperus serotinus; assay: as above; conditions: Comparative Table 7, 320 g a.i./ha, visual scoring 3-4 weeks after treatment
Excerpt: as §3

[15] = system: Polygonum convolvulus; assay: as above; conditions: Comparative Table 7, 320 g a.i./ha, visual scoring 3-4 weeks after treatment
Excerpt: as §3

[16] = system: Veronica persica; assay: as above; conditions: Comparative Table 7, 320 g a.i./ha, visual scoring 3-4 weeks after treatment
Excerpt: as §3

[17] = system: Stellaria media; assay: Post-emergence herbicidal action against harmful plants; conditions: Comparative Table 8, 20 g a.i./ha, scored after 3 to 4 weeks
Method: as §1, §2

[18] = system: Abutilon theophrasti; assay: as above; conditions: Comparative Table 8, 20 g a.i./ha, scored after 3 to 4 weeks
Method: as §1, §2

[19] = Comparative Table 1, 20 g a.i./ha
[20] = Comparative Table 2, 80 g a.i./ha
[21] = Comparative Table 3, 20 g a.i./ha
[22] = Comparative Table 4, 20 g a.i./ha
[23] = Comparative Table 5, 80 g a.i./ha
[24] = Comparative Table 6, 20 g a.i./ha
[25] = Comparative Table 8, 20 g a.i./ha

SMILES: CNc1c(S(C)(=O)=O)ccc(C(=O)c2cnn(C)c2O)c1C
- Activity against harmful plants VIOTR [1, 19]: 100%
- Activity against harmful plants POLCO [2]: 90%
- Activity against harmful plants XANST [3]: 80%
- Activity against harmful plants AMARE [4, 19]: 90%

SMILES: CNc1c(S(C)(=O)=O)ccc(C(=O)c2cnn(C)c2O)c1Cl
- Activity against harmful plants VIOTR [1, 19]: 70%
- Activity against harmful plants POLCO [2]: 40%
- Activity against harmful plants XANST [3]: 50%
- Activity against harmful plants AMARE [4, 19]: 70%

SMILES: COCCCN(C)c1c(S(C)(=O)=O)ccc(C(=O)c2cnn(C)c2O)c1C
- pest or weed control at 80 g/ha [5]: 100%
- Activity against harmful plants VIOTR [1, 20]: 90%
- Activity against harmful plants PHBPU [6, 20]: 70%
- Activity against harmful plants AMARE [4, 20]: 100%

SMILES: COCCCN(C)c1c(S(C)(=O)=O)ccc(C(=O)c2cnn(C)c2O)c1Cl
- pest or weed control at 80 g/ha [5]: 0%
- Activity against harmful plants VIOTR [1, 20]: 70%
- Activity against harmful plants PHBPU [6, 20]: 40%
- Activity against harmful plants AMARE [4, 20]: 70%

SMILES: COCCN(C)c1c(S(C)(=O)=O)ccc(C(=O)c2cnn(C)c2O)c1C
- pest or weed control at 20 g/ha [5, 21]: 90%
- Activity against harmful plants PHBPU [6, 21]: 80%
- Activity against harmful plants AMARE [4, 21]: 90%
- Activity against harmful plants VERPE [7, 21]: 100%

SMILES: COCCN(C)c1c(S(C)(=O)=O)ccc(C(=O)c2cnn(C)c2O)c1Cl
- pest or weed control at 20 g/ha [5, 21]: 50%
- Activity against harmful plants PHBPU [6, 21]: 30%
- Activity against harmful plants AMARE [4, 21]: 60%
- Activity against harmful plants VERPE [7, 21]: 60%

SMILES: CCCNc1c(S(C)(=O)=O)ccc(C(=O)c2cnn(C)c2O)c1C
- Activity against harmful plants DIGSA [8]: 90%
- pest or weed control at 20 g/ha [5, 22]: 80%
- Activity against harmful plants GALAP [9]: 80%
- Activity against harmful plants VERPE [7, 22]: 70%

SMILES: CCCNc1c(S(C)(=O)=O)ccc(C(=O)c2cnn(C)c2O)c1Cl
- Activity against harmful plants DIGSA [8]: 70%
- pest or weed control at 20 g/ha [5, 22]: 50%
- Activity against harmful plants GALAP [9]: 30%
- Activity against harmful plants VERPE [7, 22]: 30%

SMILES: CCOCCNc1c(S(C)(=O)=O)ccc(C(=O)c2cnn(C)c2O)c1C
- Activity against harmful plants SETVI [10, 23]: 100%
- Activity against harmful plants AVEFA [11]: 50%
- Activity against harmful plants ECHCG [12, 23]: 100%
- Activity against harmful plants AMARE [13]: 100%

SMILES: CCOCCNc1c(S(C)(=O)=O)ccc(C(=O)c2cnn(C)c2O)c1Cl
- Activity against harmful plants SETVI [10, 23]: 80%
- Activity against harmful plants AVEFA [11]: 0%
- Activity against harmful plants ECHCG [12, 23]: 40%
- Activity against harmful plants AMARE [13]: 80%

SMILES: CCNc1c(S(C)(=O)=O)ccc(C(=O)c2cnn(C)c2O)c1C
- Activity against harmful plants SETVI [10, 24]: 60%
- Activity against harmful plants ECHCG [12, 24]: 90%

SMILES: CCNc1c(S(C)(=O)=O)ccc(C(=O)c2cnn(C)c2O)c1Cl
- Activity against harmful plants SETVI [10, 24]: 0%
- Activity against harmful plants ECHCG [12, 24]: 60%

SMILES: Cc1c(C(=O)c2cnn(C)c2O)ccc(S(C)(=O)=O)c1NCC1CC1
- Activity against harmful plants CYPES [14]: 100%
- Activity against harmful plants POLCO [15]: 60%
- Activity against harmful plants VERPE [16]: 100%

SMILES: Cn1ncc(C(=O)c2ccc(S(C)(=O)=O)c(NCC3CC3)c2Cl)c1O
- Activity against harmful plants CYPES [14]: 40%
- Activity against harmful plants POLCO [15]: 0%
- Activity against harmful plants VERPE [16]: 80%

SMILES: Cc1c(C(=O)c2cnn(C)c2O)ccc(S(C)(=O)=O)c1N(C)CC1CC1
- pest or weed control at 20 g/ha [5, 25]: 90%
- Activity against harmful plants STEME [17]: 100%
- Activity against harmful plants ABUTH [18]: 90%
- Activity against harmful plants VERPE [7, 25]: 80%

SMILES: CN(CC1CC1)c1c(S(C)(=O)=O)ccc(C(=O)c2cnn(C)c2O)c1Cl
- pest or weed control at 20 g/ha [5, 25]: 30%
- Activity against harmful plants STEME [17]: 80%
- Activity against harmful plants ABUTH [18]: 70%
- Activity against harmful plants VERPE [7, 25]: 60%
